According to patent publication US9708370B2, “Azapeptides as CD36 binding compounds” (VALORISATION-RECHERCHE, LIMITED PARTNERSHIP, priority 2007, dated 2017):
Where two headings read alike, the source gives them in different places. Starred links: 1 amine or outer side, 2 acyl side, 3 side chain; linkers in the order of their positions; H or OH if unused. Non-standard residues stand in square brackets, D forms with d. Residues, ends and D or L forms follow the SMILES beside them. azaTyr = O=C(N(Cc1ccc(O)cc1)N[*:1])[*:2]; X3 = O=C(N(Cc1cccc2ccccc12)N[*:1])[*:2]; azaPhe = O=C(N(Cc1ccccc1)N[*:1])[*:2]; X1 = O=C(N(CC1CCCCC1)N[*:1])[*:2]; azaPro = O=C(N1CCCN1[*:1])[*:2]; azaGly = NNC(=O)O

Key:
CD36 = CD36 (Rattus norvegicus (Rat), UniProt Q07969); assay: CD36 receptor covalent photolabelling binding assay, competition with [125I]Tyr-Bpa-Ala-hexarelin on rat cardiac membranes; conditions: for binding activity/affinity at CD36 in words: compared with parent peptide GHRP-6 or hexarelin
Method: The hearts from Sprague Dawley rats (300 g-325 g) from Charles River, used as a source of cardiac membranes, were prepared as follows: the heart was washed with ice-cold saline, and fatty and connective tissue was removed. The tissue was cut into small pieces with scissors and placed in a Sorvall centrifuge tube containing 5 ml/g of fresh tissue of Buffer A (10 mM NaHCO3, 5 mM NaN3, 10 μM Pefabloc, 0.1 μM Aprotinin, 1 μM Pepstatin A, 1 μM Leupeptin, pH 7.0). The suspension was homogenized with a Polytron at low speed, 3×15 sec. The homogenate was centrifuged at 8 700×g for 20 min and the supernatant was put on ice. The pellet was resuspended and homogenized with a Glass-teflon Potter by 5 strokes. The homogenate was centrifuged at 8 700×g for 10 min and this supernatant was combined with the first supernatant. The supernatant fluid was centrifuged at 35 000×g for 20 min, yielding a second pellet fraction that was suspended thoroughly in a glass homogenizer with a Teflon pestle in 20 ml/g of fresh tissue of Buffer B (20 mM Tris-maleate, 0.6M KCl, pH 6.8). The resulting suspension was centrifuged again at 35 000×g for 60 min. The third pellet fraction was resuspended thoroughly in a glass homogenizer with a Teflon pestle in 20 ml/g of fresh tissue of Buffer C (10 mM Tris/HCl buffer pH 7.4) followed with another centrifugation at 35 000×g for 60 min. The harvested precipitate was then suspended in a small volume (1-2 ml/g of fresh tissue) of 50 mM Tris/HCl buffer pH 7.4) containing 2 mM EGTA. The resulting membrane preparation was frozen at −80° C. Protein concentration was determined with bicinchoninic acid (BCA) method, using BSA as standard.
The iodination procedure was performed in the darkness. […] The reaction was started by adding 5 ul (3 nmol) of H2O2. The incubation was carried out at 22° C. for 5 min. The addition of H2O2 was repeated twice with 5 min incubation each time. The reaction was stopped with the addition of 1.4 ml of 0.1% TFA. The iodinated peptide was purified on a reverse-phase Vydac C18 column with a 60 min linear gradient (1 ml/min) from 20% to 50% acetonitrile (90%) in 0.1% TFA (10%).
Nonspecific binding was defined as binding not displaced by 50 μM corresponding peptide. All peptide containing solutions were diluted in Buffer B. Buffer A and B were degassed under vacuum, and used in capped tubes in order to minimize lipid peroxydation. Before the incubation period, all tubes were put under a low flow of nitrogen. All material was kept on ice and the binding assay was performed in darkness. After an incubation period of 60 min at 22° C. […] After centrifugation at 12 000×g for 15 minutes, the pellets were resuspended in 150 μl of sample buffer (62 mM Tris-HCl, pH 6.8, 2% SDS, 10% glycerol, 15% 2-mercapto-ethanol, and 0.05% bromophenol blue), and boiled for 5 min prior to being subjected to electrophoresis. Proteins (200 μg/100 μl) were separated on 7.5% SDS-PAGE (45 V overnight). The gels resulting from SDS/PAGE were fixed, colored in Coomassie Brilliant Blue R-250, dried, exposed to a storage phosphor intensifying screen (Amersham Biosciences), and analysed by using a Typhoon PhosphorImager (Amersham Biosciences) and ImageQuant 5.0 software to establish competition curves. Protein bands were quantified by densitometry. The covalent binding signal of 87 kDa was analyzed by densitometry using Typhoon Phospholmager™ (Typhoon, Amersham Biosciences) and ImageQuant 5.0® software to set competition curves.
Specific binding activities were defined as the ratio of the density of the protein band to that of a non-specific band. Results are expressed as the percentage of the density of the […] to that of the total binding band.

human GHS-R1a = human GHS-R1a (Homo sapiens (Human), UniProt Q92847); assay: GHS-R1a binding assay, competition with 125I-ghrelin on membranes of LLC-PK1 cells expressing human GHS-R1a; conditions: for binding affinity for GHS-R1a receptor in words: compared with GHRP-6
Method: Rat ghrelin was radio iodinated with Na^125I using the lodo-Beads iodination reagent (Pierce #28665). Briefly, an lodo-bead was incubated with 2 mCi of Na^125I (Amersham) in 100 μL of 50 mM sodium phosphate buffer, pH 7.0 for 5 min at 22° C. The reaction was started by adding 20 nmol of the peptide (1 mM in 0.1 M acetic acid). The tube was incubated for 10 min at 22° C. The iodination was terminated by adding 1 mL of 0.1% TFA. The mono-iodinated peptide was purified by reverse-phase HPLC using a Vydac C18 ([…]) column (30 cm×0.39 cm) in combination with a binary elution system of (A) 0.1% TFA in H2O and (B) 0.1% TFA, 10% H2O, 90% acetonitrile. Fractions of 0.5 mL were collected and analyzed by its radioactive content.
Cells (1.4×10^6) were plated in 100 mm plates and transfected 24 h later with pCDNA3.1-hGHS-R1a (UMR cDNA Resource Center #GHSR0A0000) following the CaHPO4 precipitation method. Briefly, 40 μg of plasmid DNA was diluted in 500 μL of sterile H2O and added to an equal volume of a 4× CaCl2, pH 7.9 solution (2 mM Tris-HCl, 0.2 mM EDTA, 500 mM CaCl2). The mixture was then added slowly with air bubbles to 1 mL of 2× Hepes-buffered saline, pH 7.1 (50 mM Hepes, 280 mM NaCl, 1.5 mM Na2HPO4). After 30 min at room temperature, 1 mL was distributed evenly over the cells and let overnight. The medium was changed the next morning and the membrane preparation was made two days later.
Cells were washed twice with PBS and once with ice-cold homogenization buffer (50 mM Tris-HCl, pH 7.3, 5 mM MgCl2, 2.5 mM EDTA, 30 μg/ml bacitracin). Cells were scraped and harvested in 1.5 mL tubes. Cells were then lysed by temperature shock with two freeze/thaw cycles in liquid nitrogen. The tubes were centrifuged at 14000 g for 20 min. Pellets were resuspended in homogenization buffer and stored at −80° C. until used. Total protein concentrations were determined with the BCA protein assay kit (Pierce).
Competition experiments were performed by incubating 50 μg of LLC-PK1 membranes expressing human GHS-R1a with 15 fmol of ^125I-Ghrelin and increasing concentrations of unlabeled ghrelin or with increasing concentrations of azapeptides derivatives in 0.5 mL of binding buffer. Bound radiolabelled ligand was separated from free by filtration on Whatman GF/C filters pretreated with a 1% polyethylenimine solution. Filters were washed with 2×3 mL of washing buffer (50 mM Tris-HCl, pH 7.3, 10 mM MgCl2, 2.5 mM EDTA, 0.015% Triton X-100). Filters were counted in a LKB gamma counter. Curves were analyzed using Prism software (GraphPad Software Inc).

[1] = Table 6, read-out: IC50 Binding CD36
[2] = Table 5, read-out: IC50 Binding GHS-R1a
[3] = Table 3, rat cardiac membranes, [125I]Tyr-Bpa-Ala-hexarelin as radioligand, read-out: IC50, binding affinity of aza peptide derivatives towards CD36
[4] = Table 4, LLCPK-1 membranes overexpressing GHS-R1a, radioiodinated (1-28) rat ghrelin as tracer, read-out: EC50 (text: IC50 values from competition curves in GHS-R1a radioreceptor assay)

Chain of human GHS-R1a (Q92847 whole entry): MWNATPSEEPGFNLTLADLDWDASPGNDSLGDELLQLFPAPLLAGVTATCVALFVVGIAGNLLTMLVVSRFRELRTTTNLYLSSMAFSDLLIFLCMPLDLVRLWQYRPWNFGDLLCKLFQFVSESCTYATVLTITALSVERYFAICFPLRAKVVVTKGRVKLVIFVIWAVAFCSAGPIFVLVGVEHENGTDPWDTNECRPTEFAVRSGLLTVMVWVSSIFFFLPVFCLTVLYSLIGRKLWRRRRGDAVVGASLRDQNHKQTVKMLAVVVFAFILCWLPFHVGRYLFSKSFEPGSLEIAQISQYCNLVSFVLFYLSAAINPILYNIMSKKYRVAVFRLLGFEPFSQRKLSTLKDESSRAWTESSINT
Chain of CD36 (Q07969 whole entry): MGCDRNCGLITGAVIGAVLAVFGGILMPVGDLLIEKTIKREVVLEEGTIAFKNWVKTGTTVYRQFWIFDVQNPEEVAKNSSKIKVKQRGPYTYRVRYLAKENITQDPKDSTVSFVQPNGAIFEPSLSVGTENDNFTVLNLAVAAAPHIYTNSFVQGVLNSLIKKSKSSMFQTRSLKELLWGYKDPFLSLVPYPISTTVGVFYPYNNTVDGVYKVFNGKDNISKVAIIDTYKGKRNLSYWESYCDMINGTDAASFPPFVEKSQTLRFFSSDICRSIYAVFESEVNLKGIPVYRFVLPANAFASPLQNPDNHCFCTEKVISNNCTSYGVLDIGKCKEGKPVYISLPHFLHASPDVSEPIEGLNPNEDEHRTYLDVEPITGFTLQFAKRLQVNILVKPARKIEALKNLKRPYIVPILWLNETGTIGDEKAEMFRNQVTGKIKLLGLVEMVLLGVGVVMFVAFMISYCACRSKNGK

| IC50 (CD36; [1]) | IC50 (human GHS-R1a; [2]) | IC50 (CD36; [3]) | IC50 (human GHS-R1a; [4]) | binding activity/affinity at CD36 in words (CD36) | binding affinity for GHS-R1a receptor in words (human GHS-R1a) | Structure (SMILES) |
| --- | --- | --- | --- | --- | --- | --- |
| 72.2 µM | > 10 µM | – | – | – | – | C[C@H](NC(=O)[C@@H](Cc1ccccc1)NC(=O)[C@H](Cc1c[nH]c2ccccc12)NC(=O)[C@H](C)NC(=O)N(Cc1ccc(O)cc1)NC(=O)[C@@H](N)Cc1cnc[nH]1)C(N)=O [CP-1B (i), His-AzaTyr-Ala-Trp-D-Phe-Ala-NH2] (H-H[azaTyr]AW[dF]A-NH2) |
| – | – | 13.2 µM | 0.771 µM | – | – | C[C@H](NC(=O)[C@@H](Cc1c[nH]c2ccccc12)NC(=O)[C@@H](N)Cc1cnc[nH]1)C(=O)N[C@@H](Cc1ccc(O)cc1)C(=O)N[C@H](Cc1ccccc1)C(=O)N[C@@H](CCCCN)C(N)=O [DBG253-7, His-D-Trp-Ala-Tyr-D-Phe-Lys-NH2] (H-H[dW]AY[dF]K-NH2) |
| – | – | > 10 µM | 5.49 µM | – | – | C[C@H](NC(=O)N(CC1CCCCC1)NC(=O)[C@@H](N)Cc1cnc[nH]1)C(=O)N[C@@H](Cc1c[nH]c2ccccc12)C(=O)N[C@H](Cc1ccccc1)C(=O)N[C@@H](CCCCN)C(N)=O [DBG253-13, His-azaCha-Ala-Trp-D-Phe- Lys-NH2] (H-H[X1]AW[dF]K-NH2) |
| 11.8 µM | > 10 µM | – | – | – | – | C[C@H](NC(=O)[C@@H](Cc1c[nH]c2ccccc12)NC(=O)[C@@H](N)Cc1ccccc1)C(=O)NN(Cc1ccc(O)cc1)C(=O)N[C@H](Cc1ccccc1)C(=O)N[C@@H](CCCCN)C(N)=O [ZS554-F29, Phe-D-Trp-Ala-azaTyr-D-Phe-Lys-NH2] (H-F[dW]A[azaTyr][dF]K-NH2) |
| 2.95 µM | > 10 µM | – | – | without major change | decreased drastically | C[C@H](N)C(=O)N[C@H](Cc1c[nH]c2ccccc12)C(=O)N[C@@H](C)C(=O)NN(Cc1ccc(O)cc1)C(=O)N[C@H](Cc1ccccc1)C(=O)N[C@@H](CCCCN)C(N)=O [ZS555-F40, Ala-D-Trp-Ala-azaTyr-D-Phe-Lys-NH2] (H-A[dW]A[azaTyr][dF]K-NH2) |
| > 10 µM | > 10 µM | – | – | – | – | C[C@H](NC(=O)[C@@H](Cc1c[nH]c2ccccc12)NC(=O)[C@@H](N)Cc1cnc[nH]1)C(=O)N[C@@H](Cc1c[nH]c2ccccc12)C(=O)N1CCCN1C(=O)N[C@@H](CCCCN)C(N)=O [CP-AP-2, His-D-Trp-Ala-Trp-AzaPro-Lys-NH2] (H-H[dW]AW[azaPro]K-NH2) |
| – | – | 12 µM | 3.25 µM | – | – | C[C@H](NC(=O)[C@@H](Cc1c[nH]c2ccccc12)NC(=O)[C@@H](N)Cc1cnc[nH]1)C(=O)N[C@H](Cc1ccc(O)cc1)C(=O)N[C@H](Cc1ccccc1)C(=O)N[C@@H](CCCCN)C(N)=O [DBG253-8, His-D-Trp-Ala-D-Tyr-D-Phe-Lys-NH2] (H-H[dW]A[dY][dF]K-NH2) |
| – | – | 2100 µM | 4.28 µM | – | – | C[C@H](NC(=O)[C@@H](Cc1c[nH]c2ccccc12)NC(=O)[C@@H](N)Cc1cnc[nH]1)C(=O)NN(CC1CCCCC1)C(=O)N[C@H](Cc1ccccc1)C(=O)N[C@@H](CCCCN)C(N)=O [DBG253-4, His-D-Trp-Ala-azaCha-D-Phe-Lys-NH2] (H-H[dW]A[X1][dF]K-NH2) |
| 5.02 µM | > 10 µM | – | – | without major change | decreased drastically | C[C@H](N)C(=O)NN(Cc1ccccc1)C(=O)N[C@@H](C)C(=O)N[C@@H](Cc1c[nH]c2ccccc12)C(=O)N[C@H](Cc1ccccc1)C(=O)N[C@@H](CCCCN)C(N)=O [CP-1A (iv), Ala-azaPhe-Ala-Trp-D-Phe-Lys-NH2] (H-A[azaPhe]AW[dF]K-NH2) |
| > 10 µM | > 10 µM | – | – | – | – | C[C@H](NC(=O)N(Cc1ccc(O)cc1)NC(=O)[C@@H](N)Cc1cnc[nH]1)C(=O)N[C@@H](Cc1c[nH]c2ccccc12)C(=O)N[C@H](C)C(=O)N[C@@H](CCCCN)C(N)=O [CP-1B (ii), His-azaTyr-Ala-Trp-D-Ala-Lys-NH2] (H-H[azaTyr]AW[dA]K-NH2) |
| 8.76 µM | – | – | – | – | – | C[C@H](N)C(=O)N[C@H](Cc1c[nH]c2ccccc12)C(=O)NNC(=O)N[C@@H](Cc1c[nH]c2ccccc12)C(=O)N[C@H](Cc1ccccc1)C(=O)N[C@@H](CCCCN)C(N)=O [CP-2A(v), Ala-D-Trp-azaGly-Trp-D-Phe-Lys-NH2] (H-A[dW][azaGly]W[dF]K-NH2) |

| Structure (SMILES) | IC50 (CD36; [1]) | IC50 (human GHS-R1a; [2]) | IC50 (CD36; [3]) | IC50 (human GHS-R1a; [4]) | binding activity/affinity at CD36 in words (CD36) | binding affinity for GHS-R1a receptor in words (human GHS-R1a) |
| --- | --- | --- | --- | --- | --- | --- |
| C[C@H](NC(=O)N(Cc1cccc2ccccc12)NC(=O)[C@@H](N)Cc1cnc[nH]1)C(=O)N[C@@H](Cc1c[nH]c2ccccc12)C(=O)N[C@H](Cc1ccccc1)C(=O)N[C@@H](CCCCN)C(N)=O [DBG253-10, His-azaNal-1-Ala-Trp-D-Phe-Lys-NH2] (H-H[X3]AW[dF]K-NH2) | – | – | 1930 µM | – | – | – |
| C[C@H](NC(=O)N(Cc1ccccc1)NC(=O)[C@@H](N)Cc1cnc[nH]1)C(=O)N[C@@H](Cc1c[nH]c2ccccc12)C(=O)N[C@H](Cc1ccccc1)C(=O)N[C@@H](CCCCN)C(N)=O [DBG253-9, His-azaPhe-Ala-Trp-D-Phe-Lys-NH2] (H-H[azaPhe]AW[dF]K-NH2) | – | – | 72.4 µM | 16.1 µM | – | – |
| NCCCC[C@H](NC(=O)[C@@H](Cc1ccccc1)NC(=O)[C@H](Cc1c[nH]c2ccccc12)NC(=O)NNC(=O)[C@@H](Cc1c[nH]c2ccccc12)NC(=O)[C@@H](N)Cc1cnc[nH]1)C(N)=O [DBG188p, His-D-Trp-azaGly-Trp-D-Phe-Lys-NH2] (H-H[dW][azaGly]W[dF]K-NH2) | – | – | 9.61 µM | – | retained significant activity similar to the parent peptide | – |
